Paper PMC12267067, “Targeting GRPR for sex hormone-dependent cancer after loss of E-cadherin” (Nature, 2025)
Each block holds one compound with its values, some of them ahead of it.

Legend:
[1] = Metabolic stability assay (liver microsomes); format: in vitro ADME, mouse
Experimental: Each compound was diluted to a final concentration of 1 µM in 100 mM phosphate buffer (pH 7.4) containing 0.5 mg ml^−1 mouse liver microsomes, 1 mM NADPH regenerating system and 1 mM MgCl2 and incubated at 37 °C for 1 h. At various time points (0, 2, 10, 20, 40 and 60 min), one volume of ice-cold acetonitrile was added and the supernatants were analysed by LC–MS/MS. To obtain a stability curve, the percentage of remaining test compound at each time point was determined by monitoring the peak area. The half-life was estimated from the slope of the initial linear range of the logarithmic curve of the remaining compound (percentage) against time, assuming first-order kinetics.
Analyses were done on a Shimadzu 8030 LC–MS instrument. Chromatographic separations were done at 40 °C using a 2.6-µm C18 Kinetex column (50 × 2.1 mm; Phenomenex). The mobile phase flow rate was set to 0.5 ml min^−1 and the following program applied for the elution: 0 min, 5% B; 0–1.2 min, 5–95% B; 1.2–1.4 min, 95% B; 1.4–1.42 min, 95-5% B; and 1.42–2.8 min, 5% B (solvent A, 0.05% formic acid in water; solvent B, acetonitrile). The injection volume was 1 µl. The mass spectrometer was interfaced with the liquid-chromatography system using an electrospray ion source. The nitrogen nebulizing gas flow was set to 1.5 l min^−1 and the drying gas flow to 15 ml min^−1. […]

[2] = tested on: 1057 ΔEcad melanoma cells; assay: ICI/Fulvestrant experiments: lung metastases after tail-vein injection of 1057 cells; format: in vivo, C57BL/6J mice
Experimental: Mouse and human melanoma cells (5 × 10^5) were suspended in 200 µl PBS and injected into the tail veins of eight-week-old C57BL/6J and NSG mice, respectively. Mice were monitored daily and weighed twice weekly. Euthanasia and autopsy were performed following 20% weight loss or reaching ethical end points.
Right lungs were imaged using a Leica MZFLIII binocular microscope with a Scion camera. Metastases were quantified in ImageJ, with macro-metastases (bigger than 0.1 mm) and micro-metastases (0.1 mm or smaller).
In vitro pre-treatment: 1057 melanoma cells (5 × 10^5) were pretreated for 3 days with 1 µM ICI before tail-vein injection. In vivo treatment: 1057 melanoma cells (5 × 10^5) were injected into C57BL/6J mice, followed by […] Fulvestrant (Zentiva) 3 h after injection, then weekly for 3 weeks. Mice were euthanized on day 25 after injection, and lung metastases were assessed by PCR-based Cre transgene detection. DNA was extracted from lung tissue and metastasis burden was analysed statistically.

[3] = tested on: mouse melanoma cell lines (1057, 1064, 1181, 1039, 1456, 1014); assay: Matrigel invasion assay, mouse melanoma cells; format: cell-based; conditions: 24 h
Experimental: Matrigel invasion assays were done in transwell plates with 8.0-µm pores (353097, Falcon) coated with 100 µl of 200 µg ml^−1 Matrigel. Depending on the experiments, cells were seeded directly or 24 h after transfection in low-serum medium (0.5% FCS for murine cells and 1% for human cell lines) with 10 nM GRP, 1 µM RC-3095, and/or 1 µM IC 182,780, or in 10% FCS. Then, 24 hours after stimulation, inserts were washed with PBS and non-invading cells were removed. Cells in the inserts were fixed in methanol at −20 °C overnight. The inserts were rinsed and the membrane carefully removed using a sharp scalpel. The membrane was mounted in prolong glass DAPI (1.5 µg ml^−1). Assays were performed in triplicate and automatic counting of invading cells was done using an Image/Fiji macro (10.5281/zenodo.14509394). Sequences of siRNAs are given in Supplementary Table 11.

GRPR, Gαq/11 activation = assay: IP1 detection (HTRF IP-one Gq kit); format: cell-based, mouse; conditions: 4,000 cells, 30 min, 37 °C, StimB buffer, 10 nM GRP, 1 µM RC-3095, 1 µM ICI-182,780 (pre-treatment)
Experimental: IP1 levels were quantified using the HTRF IP-one Gq detection kit (62IPAPEB, Revvity) following the manufacturer’s protocol. We treated 4,000 cells for 30 min at 37 °C in StimB buffer with 10 nM GRP, 1 µM RC-3095, 1 µM ICI-182,780 or DMSO. FRET signals (620 nm and 665 nm, excitation at 385 nm) were measured using a Clariostar plate reader (BMG Labtech).

[4] = tested on: Grpr expression in ESR1pos 1057 melanoma cells; assay: Pharmacological targeting of ERα: Grpr expression in 1057 cells; format: cell-based, mouse; conditions: 100 nM E2 or 1 µM ICI 182,780, 72 h, after oestrogen starvation for four days
Experimental: (§1) RNA (3 µg) was reverse transcribed using M‐MLV reverse transcriptase (Invitrogen), according to the manufacturer’s protocol. The newly synthesized cDNA was used as a template for qPCR with the iTaq Universal SYBR Green Supermix. Technical triplicates were used for each sample and the quantified RNA normalized against TBP (human) or Hprt (mouse) as housekeeping transcripts (Supplementary Tables 9 and 10).
(§2) For hormone depletion, FCS was stripped using the dextran-coated charcoal method. In brief, Norit activated charcoal (C6241-5G, Sigma-Aldrich, final concentration of 0.25%) and Dextran T-70 (31390, Sigma-Aldrich, final concentration of 0.0025%) in 0.25 M sucrose/1.5 mM MgCl2/10 mM HEPES (H4034, Sigma-Aldrich), pH 7.4, were incubated overnight at 4 °C. The volume equivalent to the volume of the FCS to strip was pipetted into a new 50 ml tube and centrifugated at 500g for 10 min to remove the supernatant. The FCS was incubated with the activated charcoal for 12 h at 4 °C. The treated FCS was then filtered through a 0.22-µM pore filter to ensure sterility and mixed with the appropriate phenol red-free medium and PS. Cells were collected using phenol red-free trypsin and starved for oestrogen using phenol red-free/10% stripped FCS for four days. […]

GRPR mRNA in MCF7 cells = assay: Pharmacological targeting of ERα: GRPR mRNA in MCF7 cells; format: cell-based, human; conditions: 17β-estradiol 100 nM or ICI 182,780 1 µM
Experimental: as §1, §2

[5] = biological target: T1, ERα in 1057 mouse melanoma cells (Mus musculus, UniProt P19785); assay: Western blot of ERα after ICI; format: cell-based; conditions: 1057 cells, ICI 1 μM, 24 h
T1 construct: Effect of ICI treatment on ERα protein levels in murine 1057 melanoma cells; endogenous in cells; host or cells: 1057 mouse melanoma cells (female, ΔEcad, Esr1-positive)
T1 sequence (P19785 1-599): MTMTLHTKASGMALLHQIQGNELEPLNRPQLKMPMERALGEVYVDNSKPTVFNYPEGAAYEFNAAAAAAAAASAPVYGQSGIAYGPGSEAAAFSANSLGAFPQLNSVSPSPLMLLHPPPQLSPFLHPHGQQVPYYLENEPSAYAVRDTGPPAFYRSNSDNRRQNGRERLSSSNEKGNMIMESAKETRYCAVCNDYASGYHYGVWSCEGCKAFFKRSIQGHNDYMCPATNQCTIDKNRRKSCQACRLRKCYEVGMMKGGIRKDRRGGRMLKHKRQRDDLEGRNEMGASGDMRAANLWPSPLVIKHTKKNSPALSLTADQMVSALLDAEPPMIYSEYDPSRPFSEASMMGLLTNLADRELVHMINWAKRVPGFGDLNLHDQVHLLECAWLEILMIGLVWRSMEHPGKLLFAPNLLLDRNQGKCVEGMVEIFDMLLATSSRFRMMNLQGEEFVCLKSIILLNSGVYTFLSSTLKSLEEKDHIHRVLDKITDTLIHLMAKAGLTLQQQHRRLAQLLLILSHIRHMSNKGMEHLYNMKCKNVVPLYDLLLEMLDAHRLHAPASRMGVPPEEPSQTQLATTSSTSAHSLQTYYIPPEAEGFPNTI
Experimental: (§3) Whole-cell lysates were prepared and analysed as described previously. The primary antibodies used were: E-cadherin (610182, BD Transduction Laboratories, dilution 1/1,000); ERα (MA1-27107, Invitrogen, dilution 1/500); YAP (14074, Cell Signaling, dilution 1/1,000); β-actin (A5441, Sigma, dilution 1/5,000); and vinculin (4650, Cell Signaling, dilution 1/5,000). All raw data are provided in Supplementary Fig. 1.

[6] = tested on: ΔEcad mouse 1057 melanoma cells; assay: RT-qPCR of β-catenin targets, Esr1 and Grpr after β-catenin inhibition; format: cell-based; conditions: ΔEcad mouse 1057 cells, iCRT3 10 μM, 48 h (with siRNA targeting Ctnnb1)
Experimental: as §1

[7] = tested on: Daju human melanoma cells; assay: RT-qPCR and western blot of ESR1/ERα after iCRT3; format: cell-based; conditions: iCRT3 80 μM, 48 h
Experimental: as §1, §3

- Metabolic stability: t1/2 ([1]; mouse, pH 7.4): 1.5 ± 0.1 min
SMILES: COc1ccc(C2(CNC(=O)[C@](C)(Cc3c[nH]c4ccccc34)NC(=O)Nc3ccc([N+](=O)[O-])cc3)CCCCC2)nc1 [PD-176252]

- ERα protein level [5]: reduced
SMILES: C[C@]12CC[C@@H]3c4ccc(O)cc4C[C@@H](CCCCCCCCC[S+]([O-])CCCC(F)(F)C(F)(F)F)[C@H]3[C@@H]1CC[C@@H]2O (stereo partly shown) [ICI 182,780]
- Visible metastases (%): mice with visible lung metastases / mice injected [2]: 1/6
- mice with no metastases ([2]; Fulvestrant 50 mg per kg 3 h after injection of 1057 cells and weekly for three weeks, day 25): 5 of 6
- Metastatic burden in lungs, qPCR for the 1057-specific Cre transgene ([2]; Fulvestrant-treated mice (50 mg per kg), day 25): reduced
- Metastatic burden in lungs, qPCR for the 1057-specific Cre transgene ([2]; ICI-pretreated 1057 cells, day 25): reduced
- mice with no visible metastases ([2]; mice injected with ICI-pretreated 1057 cells (3 days, 1 µM), day 25, control 1 of 11): 9 of 13
- invasion potential of 1057 cells, ICI alone ([3]; 1 µM ICI without GRP): no effect
- invasion (number of invading cells), GRPR-positive mouse lines ([3]; 1057 (also 1064, GRPR-transduced 1014 and 1181 for RC-3095), 10 nM GRP, 1 µM RC-3095 and/or 1 µM ICI, Matrigel 200 µg ml−1, 0.5% FCS): significantly reduced
- invasion (number of invading cells), Grpr-negative mouse lines ([3]; 1181 male Ecad, 1039 female Ecad, 1456 male ΔEcad, 10 nM GRP and/or 1 µM ICI): no effect
- IP1 production, GRPR-positive cells (GRPR, Gαq/11 activation): reduced IP1 production
- Grpr expression [4]: reduced it
- GRPR mRNA expression (GRPR mRNA in MCF7 cells): significantly decreased

- metabolic stability, comparison of the two GRPR antagonists ([1]; RC-3095 versus PD-176252, murine plasma and liver microsomes): higher metabolic stability
SMILES: CC(C)C[C@@H](CN[C@@H](CC(C)C)C(N)=O)NC(=O)[C@H](Cc1c[nH]cn1)NC(=O)CNC(=O)[C@@H](NC(=O)[C@H](C)NC(=O)[C@H](Cc1c[nH]c2ccccc12)NC(=O)[C@H](CCC(N)=O)NC(=O)[C@H]1Cc2c([nH]c3ccccc23)CN1)C(C)C [RC-3095]

SMILES: C[C@]12CC[C@@H]3c4ccc(O)cc4CC[C@H]3[C@@H]1CC[C@@H]2O [E2, 17β-oestradiol]
- Grpr expression [4]: increased Grpr expression
- GRPR mRNA expression (GRPR mRNA in MCF7 cells): increased GRPR

SMILES: CCc1ccc(-c2nc(CSCC(=O)NCCc3ccccc3)c(C)o2)cc1 [iCRT3]
- GRP-induced invasion after β-catenin inhibition ([3]; 1057 cells, iCRT3 and/or GRP): reduced GRP-induced invasion
- expression of Nkd1, Esr1 and Grpr (RT-qPCR) [6]: decreased the expression of Nkd1, Esr1 and Grpr
- ERα levels at RNA and protein level [7]: reduction
